26 compounds from patent publication US11578087B2, “Oxaborole esters and uses thereof” (priority 2016, dated 2023) can be followed below.

Bounds are passed on as bounds.

The test system of one assay is IL3000 T. congolense (drug sensitive) strain. Nature of the assay: In vitro Alamar Blue 72 h drug sensitivity assay for T. congolense. The format is cell-based, Trypanosoma congolense. Particulars: Trypanosoma congolense, 72 h, bloodstream form, 69 h + 3 h Resazurin, 34° C., read-out: IC50: I Org. Growth T. congolense 3 d. On the procedure: Example 252. In Vitro Alamar Blue 72 h Drug Sensitivity Assay for T. congolense
Compounds were tested in vitro for chemotherapeutic potency against the IL3000 T. congolense (drug sensitive) strain, using the Alamar Blue assay with several modifications. Test compounds were prepared as 10 mg/mL DMSO stocks for each assay run. Compounds were assayed in at least three separate, independent test runs and an 11-point dilution curve was used to determine the IC50 values. Bloodstream form trypanosomes were supported in HMI media containing 20% bovine serum and were incubated with test compounds for 69 h at 34° C. in a humidified atmosphere containing 5% CO2. Thereafter, 10 μL of Resazurin dye (12.5 mg in 100 mL of phosphate buffered saline, Sigma-Aldrich, Buchs, Switzerland) were added for an additional 3 h. Plates were then read using a fluorescent plate reader (Spectramax, Gemini XS, Bucher Biotec, Basel, Switzerland) using an excitation wavelength of 536 nm and an emission wavelength of 588 nm. Data points were averaged to generate sigmoidal dose-response curves and IC50 values were determined using Softmax Pro 5.2 software.
In the case of `Cc1c(C(=O)N[C@H](C(=O)OCc2ncc3ccccc3n2)C(C)C)ccc2c1B(O)OC2` [Example 6-137, Quinazolin-2-ylmethyl (1-hydroxy-7-methyl-1,3-dihydrobenzo[c][1,2]oxaborole-6-carbonyl)-L-valinate], the IC50 was less than 0.5 nM.

As to `Cc1c(C(=O)N[C@H](C(=O)OC2COC2)C(C)C)ccc2c1B(O)OC2` [Example 6-135, Oxetan-3-yl (1-hydroxy-7-methyl-1,3-dihydrobenzo[c][1,2]oxaborole-6-carbonyl)-L-valinate], the half-inhibitory concentration (IC50) was less than 0.5 nM.

On to `Cc1c(C(=O)N[C@H](C(=O)OCc2ccc(C#N)cc2)C(C)C)ccc2c1B(O)OC2` [Example 6-044, 4-Cyanobenzyl (1-hydroxy-7-methyl-1,3-dihydrobenzo[c][1,2]oxaborole-6-carbonyl)-L-valinate], for which the IC50 is less than 0.5 nM.

Take `Cc1c(C(=O)N[C@H](C(=O)OCc2ccc(F)cc2)C2CCCC2)ccc2c1B(O)OC2` [Example 6-060, 4-Fluorobenzyl (S)-2-cyclopentyl-2-(1-hydroxy-7-methyl-1,3-dihydrobenzo[c][1,2]oxaborole-6-carboxamido)acetate]: the IC50 lay within 0.51 to 9.99 nM.

Consider `Cc1c(C(=O)N[C@H](C(=O)OCc2cscn2)C(C)C)ccc2c1B(O)OC2` [Example 6-128, Thiazol-4-ylmethyl (1-hydroxy-7-methyl-1,3-dihydrobenzo[c][1,2]oxaborole-6-carbonyl)-L-valinate], for which the IC50 was less than 0.5 nM.

The test system of another assay is T. cruzi amastigote (Td Tomato-modified) in Vero cells. The experiment in a line: In vitro IC50 measurement of T. cruzi amastigote killing using Td Tomato-modified T. cruzi. The assay is classed as cell-based. As to conditions: Trypanosoma cruzi, 72 h, fluorescence, read-out: IC50: I Org. amastigote Growth T. cruzi 3 d. On the procedure:
Example 254. In Vitro IC50 Measurement of T. cruzi Amastigote Killing Using Td Tomato-Modified T. cruzi
The T. cruzi parasites used in this assay were genetically modified to express Td Tomato fluorescent protein. Vero cells (African green monkey kidney epithelial cells) were harvested from continuous cultures using trypsin and added to the inner 60 wells of 96-well Greiner Bio One plates (plate catalog #655090) at 200 ul/well of […]. Cells were allowed to adhere for 1 h before infection with T. cruzi. T. cruzi for infection were harvested from previously-infected Vero cells, washed, pelleted and resuspended at 5×10^6/mL. 50 uL of parasites were added to each well containing Vero cells. Compounds were prepared from 5 mM stock concentrations in DMSO to final concentrations in wells ranging from 5 uM to 5 nM. Wells were provided for negative controls, lacking compounds. Plates were placed into a 37° C. incubator for 20 min, then a “Day 0” reading was taken on a Synergy H4 plate reader to record initial fluorescence levels, at 544 (excitation) and 612 nm (emission). 96-well plates were placed in Tupperware containers with wet paper towels and incubated at 37° C. incubator for 72 h. After 72 h plates were reread (Day 3 reading) and data analyzed using Excel and/or Graphpad software. Day 0 fluorescence was subtracted from Day 3 to remove input parasite fluorescence. Growth curves are generated and 50% and 90% inhibitory concentrations are determined by nonlinear regression analysis.
Regarding `Cc1c(C(=O)N[C@H](C(=O)OCc2ncc3ccccc3n2)C(C)C)ccc2c1B(O)OC2` [Example 6-137, Quinazolin-2-ylmethyl (1-hydroxy-7-methyl-1,3-dihydrobenzo[c][1,2]oxaborole-6-carbonyl)-L-valinate], the IC50 is not above 20 nM.

Take `Cc1c(C(=O)N[C@H](C(=O)OC2COC2)C(C)C)ccc2c1B(O)OC2` [Example 6-135, Oxetan-3-yl (1-hydroxy-7-methyl-1,3-dihydrobenzo[c][1,2]oxaborole-6-carbonyl)-L-valinate]: the IC50 lay in the range of 21 to 999 nM.

In the case of `Cc1c(C(=O)N[C@H](C(=O)OCc2ccc(C#N)cc2)C(C)C)ccc2c1B(O)OC2` [Example 6-044, 4-Cyanobenzyl (1-hydroxy-7-methyl-1,3-dihydrobenzo[c][1,2]oxaborole-6-carbonyl)-L-valinate], the IC50 was not above 20 nM.

For `Cc1c(C(=O)N[C@H](C(=O)OCc2ccc(F)cc2)C2CCCC2)ccc2c1B(O)OC2` [Example 6-060, 4-Fluorobenzyl (S)-2-cyclopentyl-2-(1-hydroxy-7-methyl-1,3-dihydrobenzo[c][1,2]oxaborole-6-carboxamido)acetate], the half-inhibitory concentration (IC50) was 21 to 999 nM.

`Cc1c(C(=O)N[C@H](C(=O)OCc2cscn2)C(C)C)ccc2c1B(O)OC2` [Example 6-128, Thiazol-4-ylmethyl (1-hydroxy-7-methyl-1,3-dihydrobenzo[c][1,2]oxaborole-6-carbonyl)-L-valinate]: the IC50 lay within 21 to 999 nM.

On to `Cc1c(C(=O)N[C@H](C(=O)OC[C@@H]2CCOC2)C(C)C)ccc2c1B(O)OC2` [Example 6-234, ((R)-tetrahydrofuran-3-yl)methyl (1-hydroxy-7-methyl-1,3-dihydrobenzo[c][1,2]oxaborole-6-carbonyl)-L-valinate], for which the IC50 is not above 20 nM.

Turning to `Cc1c(C(=O)N[C@H](C(=O)OCC(C)C)C(C)C)ccc2c1B(O)OC2` [Example 6-116, Isobutyl (1-hydroxy-7-methyl-1,3-dihydrobenzo[c][1,2]oxaborole-6-carbonyl)-L-valinate], the IC50 is not above 20 nM.

Regarding `Cc1c(C(=O)N[C@H](C(=O)OCc2ccccn2)C(C)(C)O)ccc2c1B(O)OC2` [Example 6-230, Pyridin-2-ylmethyl (S)-3-hydroxy-2-(1-hydroxy-7-methyl-1,3-dihydrobenzo[c][1,2]oxaborole-6-carboxamido)-3-methylbutanoate], the IC50 was 21 to 999 nM.

`Cc1c(C(=O)N[C@H](C(=O)OCc2cncc(N3CCNCC3)n2)C(C)C)ccc2c1B(O)OC2` [Example 6-205, (6-(piperazin-1-yl)pyrazin-2-yl)methyl (1-hydroxy-7-methyl-1,3-dihydrobenzo[c][1,2]oxaborole-6-carbonyl)-L-valinate]: the IC50 was not below 1000 nM.

With `CC(C)[C@H](NC(=O)c1ccc2c(c1C(F)F)B(O)OC2)C(=O)OCc1ccccc1` [Example 6-079, Benzyl (7-(difluoromethyl)-1-hydroxy-1,3-dihydrobenzo[c][1,2]oxaborole-6-carbonyl)-L-valinate], the IC50 fell in the range of 21 to 999 nM.

On to `Cc1c(C(=O)N[C@H](C(=O)OCc2ccc(C(=O)N(C)CCN(C)C)cc2)C(C)C)ccc2c1B(O)OC2` [Example 6-106, 4-((2-(Dimethylamino)ethyl)(methyl)carbamoyl)benzyl (1-hydroxy-7-methyl-1,3-dihydrobenzo[c][1,2]oxaborole-6-carbonyl)-L-valinate], for which the IC50 is not below 1000 nM.

For `Cc1c(C(=O)N[C@H](C(=O)OCC2(O)CCOC2)C(C)C)ccc2c1B(O)OC2` (stereo partly drawn) [Example 6-250, (3-hydroxytetrahydrofuran-3-yl)methyl (1-hydroxy-7-methyl-1,3-dihydrobenzo[c][1,2]oxaborole-6-carbonyl)-L-valinate], the IC50 is not below 1000 nM.

As to `Cc1c(C(=O)N[C@H](C(=O)OC[C@H](O)CO)C(C)C)ccc2c1B(O)OC2` [Example 6-147, (R)-2,3-dihydroxypropyl (1-hydroxy-7-methyl-1,3-dihydrobenzo[c][1,2]oxaborole-6-carbonyl)-L-valinate], the IC50 was not below 1000 nM.

Consider `Cc1c(C(=O)N[C@H](C(=O)OCc2ccc([S+]([O-])C(C)C)cc2)C(C)C)ccc2c1B(O)OC2` (stereo partly drawn) [Example 6-089, 4-(Isopropylsulfinyl)benzyl (1-hydroxy-7-methyl-1,3-dihydrobenzo[c][1,2]oxaborole-6-carbonyl)-L-valinate], for which the IC50 was in the range of 21 to 999 nM.

Turning to `Cc1c(C(=O)N[C@H](C(=O)OCCN2CC3CC(C2)O3)C(C)C)ccc2c1B(O)OC2` [Example 6-231, 2-(6-oxa-3-azabicyclo[3.1.1]heptan-3-yl)ethyl (1-hydroxy-7-methyl-1,3-dihydrobenzo[c][1,2]oxaborole-6-carbonyl)-L-valinate], the half-inhibitory concentration (IC50) fell in the range of 21 to 999 nM.

For `Cc1c(C(=O)N[C@H](C(=O)OCc2ccc(S(N)(=O)=O)cc2)C(C)C)ccc2c1B(O)OC2` [Example 6-108, 4-Sulfamoylbenzyl (1-hydroxy-7-methyl-1,3-dihydrobenzo[c][1,2]oxaborole-6-carbonyl)-L-valinate], the IC50 was not below 1000 nM.

In the case of `COc1c(C(=O)N[C@H](C(=O)OCc2ccccc2)C(C)C)ccc2c1B(O)OC2` [Example 6-194, Benzyl (1-hydroxy-7-methoxy-1,3-dihydrobenzo[c][1,2]oxaborole-6-carbonyl)-L-valinate], the IC50 was 21 to 999 nM.

As to `Cc1c(C(=O)N[C@H](C(=O)OCc2cccc(N3CCNCC3)n2)C(C)C)ccc2c1B(O)OC2` [Example 6-213, (6-(piperazin-1-yl)pyridin-2-yl)methyl (1-hydroxy-7-methyl-1,3-dihydrobenzo[c][1,2]oxaborole-6-carbonyl)-L-valinate], the IC50 is not below 1000 nM.

As to `COCC1(COC(=O)[C@@H](NC(=O)c2ccc3c(c2C)B(O)OC3)C(C)C)COC1` [Example 6-158, (3-(Methoxymethyl)oxetan-3-yl)methyl (1-hydroxy-7-methyl-1,3-dihydrobenzo[c][1,2]oxaborole-6-carbonyl)-L-valinate], the IC50 lay within 21 to 999 nM.

For the compound `COc1c(C(=O)N[C@H](C(=O)OCc2ccc(F)cc2)C(C)C)ccc2c1B(O)OC2` [Example 6-195, 4-fluorobenzyl (1-hydroxy-7-methoxy-1,3-dihydrobenzo[c][1,2]oxaborole-6-carbonyl)-L-valinate], the IC50 is 21 to 999 nM.

As to `Cc1c(C(=O)N[C@H](C(=O)OCc2cccnc2)C(C)C)ccc2c1B(O)OC2` [Example 6-187, Pyridin-3-ylmethyl (1-hydroxy-7-methyl-1,3-dihydrobenzo[c][1,2]oxaborole-6-carbonyl)-L-valinate], the IC50 is not above 20 nM.

For the compound `Cc1c(C(=O)N[C@H](C(=O)OCc2ccc(C(=O)N3CCN(C)CC3)cc2)C(C)C)ccc2c1B(O)OC2` [Example 6-105, 4-(4-Methylpiperazine-1-carbonyl)benzyl (1-hydroxy-7-methyl-1,3-dihydrobenzo[c][1,2]oxaborole-6-carbonyl)-L-valinate], the IC50 fell in the range of 21 to 999 nM.

With `Cc1c(C(=O)N[C@H](C(=O)OCc2ccc3ncccc3c2)C(C)C)ccc2c1B(O)OC2` [Example 6-127, Quinolin-6-ylmethyl (1-hydroxy-7-methyl-1,3-dihydrobenzo[c][1,2]oxaborole-6-carbonyl)-L-valinate], the IC50 lay in the range of 21 to 999 nM.

Turning to `Cc1c(C(=O)N[C@H](C(=O)OCCN2CCC3(CC2)COC3)C(C)C)ccc2c1B(O)OC2` [Example 6-217, 2-(2-oxa-7-azaspiro[3.5]nonan-7-yl)ethyl (1-hydroxy-7-methyl-1,3-dihydrobenzo[c][1,2]oxaborole-6-carbonyl)-L-valinate], the IC50 was not below 1000 nM.

In the case of `Cc1cc2c(cc1C(=O)N[C@H](C(=O)OCc1ccc(F)cc1)C(C)C)B(O)OC2` [Example 6-129, 4-Fluorobenzyl (1-hydroxy-5-methyl-1,3-dihydrobenzo[c][1,2]oxaborole-6-carbonyl)-L-valinate], the IC50 is 21 to 999 nM.

Consider `Cc1c(C(=O)N[C@H](C(=O)OCC2COCCO2)C(C)C)ccc2c1B(O)OC2` (stereo partly drawn) [Example 6-227, (1,4-dioxan-2-yl)methyl (1-hydroxy-7-methyl-1,3-dihydrobenzo[c][1,2]oxaborole-6-carbonyl)-L-valinate], for which the half-inhibitory concentration (IC50) was not above 20 nM.
